Results: patent US20090253644A1, “Radiosensitizer” (TOYO SUISAN KAISHA, LTD., priority 2004, published 2009)

Tests used:
[1] = tested on: Bovine aortic endothelial cells (BAEC); experiment: Colony assay on vascular endothelial cells with 60Co γ-ray irradiation; format: cell-based; parameters: key to actually measured SF value of combined use group / actually measured SF value of combined use: SF = colonies/seeded cells×(PE/100); PE = control colony formation rate; conditions: for SF (cell surviving fraction), administration alone / synergistic effect of combined use with radiation on suppression of proliferation of vascular endothelial cells: 10 μM; for SF (cell surviving fraction), administration alone: 24 hours, no irradiation; for synergistic effect of combined use with radiation on suppression of proliferation of vascular endothelial cells: 4 Gy and/or 6 Gy
Description: Bovine aortic endothelial cells (BAEC) were appropriately seeded on a petri dish, and adhesion of cells was confirmed after 2 to 3 hours. In a group of α-SQMG C18:0 administration alone and a combined use group, the cells were treated with 10 μM of α-SQMG C18:0. After 24 hours, a medium was exchanged in all test groups, and 4 Gy of ^60Co γ-ray was irradiated in a group of irradiation alone and a combined use group. After the cells were cultured in a CO2 incubator at 37° C. for 10 to 12 days, formed colonies were fixed with formalin, and stained with a crystal violet staining solution. On each plate, the number of colonies consisting of about 50 or more cells was counted, and cell surviving fraction (SF) was obtained according to the following equation.
SF (cell surviving fraction)=number of colonies/number of seeded cells×(PE/100)
Herein, PE (plating efficiency) represents a colony formation rate (%) on a plate of a control.
An experiment was performed three times, and an average of them was calculated.
The same experiment as that of Experimental Example 2-1 was performed except that a radiation dose 6 Gy was irradiated in place of 4 Gy used in Experimental Example 2-1. […]

[2] = tested on: angiogenesis (tube formation); experiment: Assay by angiogenesis kit (KZ-1000), tube formation; format: cell-based
Description: The anti-angiogenic effect obtained by combined use of 20 μM of α-SQMG C18:0 administration and 4 Gy of ^60Co γ-ray irradiation was investigated using an angiogenesis kit (“angiogenesis kit KZ-1000” of Kurabo Industries Ltd.).
A drug named Suramin is the known substance as a drug suppressing angiogenesis, and it is known that its action is to inhibit a growth factor receptor of a vascular endothelial cell. In the present Example, Suramin was used as a positive control at 50 μM.
As described above, the “theoretical additive point of combined use” is calculated by multiplication, and the theoretical value is compared with an actually measured value.

[3] = 4 Gy 60Co γ-ray + α-SQMG C18:0 20 μM or Suramin 50 μM

Structure (SMILES)	actually measured SF value of combined use group ([1]; 10 μM + 4 Gy 60Co γ-ray)	theoretical additive point of combined use (SF) ([1]; 10 μM + 4 Gy 60Co γ-ray)	SF (cell surviving fraction), administration alone [1]	actually measured SF value of combined use group ([1]; 10 μM + 6 Gy 60Co γ-ray)	theoretical additive point of combined use (SF) ([1]; 10 μM + 6 Gy 60Co γ-ray)	synergistic effect of combined use with radiation on suppression of proliferation of vascular endothelial cells [1]	tube formation rate, Actually measured value, combined use [2, 3]	tube formation rate, Theoretical value (theoretical additive point of combined use) [2, 3]	tube formation rate, use alone ([2]; α-SQMG C18:0 20 μM, Suramin 50 μM, no irradiation)
CCCCCCCCCCCCCCCCCC(=O)OCC(O)CO[C@@H]1O[C@H](CS(=O)(=O)[O-])[C@@H](O)[C@H](O)[C@H]1O.[Na+] (stereo partly drawn) [β-SQMG C18:0, 3-O-(6-deoxy-6-sulfo-β-D-glucopyranosyl)-1-O-stearoyl-glycerol sodium salt]	0.0922	0.1640	0.8562						
CCCCCCCCCCCCCCCCCC(=O)OCC(CO[C@@H]1O[C@H](CS(=O)(=O)[O-])[C@@H](O)[C@H](O)[C@H]1O)OC(=O)CCCCCCCCCCCCCCCCC.[Na+] (stereo partly drawn) [β-SQDG C18:0, 3-O-(6-deoxy-6-sulfo-β-D-glucopyranosyl)-1,2-di-O-stearoyl-glycerol sodium salt]	0.0908	0.1377	0.7190						
CCCCCCCC/C=C\CCCCCCCC(=O)OCC(O)CO[C@H]1O[C@H](CS(=O)(=O)[O-])[C@@H](O)[C@H](O)[C@H]1O.[Na+] (stereo partly drawn) [α-SQMG C18:1, 3-O-(6-deoxy-6-sulfo-α-D-glucopyranosyl)-1-O-oleoyl-glycerol sodium salt]	0.0843	0.1990	1.0392						
CCCCCCCCCCCCCC(=O)OCC(O)CO[C@H]1O[C@H](CS(=O)(=O)[O-])[C@@H](O)[C@H](O)[C@H]1O.[Na+] (stereo partly drawn) [α-SQMG C14:0, 3-O-(6-deoxy-6-sulfo-α-D-glucopyranosyl)-1-O-myristoyl-glycerol sodium salt]			1.0605	0.0109	0.0715	considerably great synergistic effect			
CCCCCCCCCCCCCCCC(=O)OCC(O)CO[C@H]1O[C@H](CS(=O)(=O)[O-])[C@@H](O)[C@H](O)[C@H]1O.[Na+] (stereo partly drawn) [α-SQMG C16:0, 3-O-(6-deoxy-6-sulfo-α-D-glucopyranosyl)-1-O-palmitoyl-glycerol sodium salt]			0.9553	0.0233	0.0644	considerably great synergistic effect			
CCCCCCCCCCCCCCCCCC(=O)OCC(CO[C@H]1O[C@H](CS(=O)(=O)[O-])[C@@H](O)[C@H](O)[C@H]1O)OC(=O)CCCCCCCCCCCCCCCCC.[Na+] (stereo partly drawn) [α-SQDG C18:0, 3-O-(6-deoxy-6-sulfo-α-D-glucopyranosyl)-1,2-di-O-stearoyl-glycerol sodium salt]	0.0882	0.1765	0.9216						
Cc1ccc(C(=O)Nc2ccc(S(=O)(=O)O)c3cc(S(=O)(=O)O)cc(S(=O)(=O)O)c23)cc1NC(=O)c1cccc(NC(=O)Nc2cccc(C(=O)Nc3cc(C(=O)Nc4ccc(S(=O)(=O)O)c5cc(S(=O)(=O)O)cc(S(=O)(=O)O)c45)ccc3C)c2)c1 [Suramin, reference compound]							0.232	0.219	0.3386
CCCCCCCCCCCCCCCCCC(=O)OCC(O)CO[C@H]1O[C@H](CS(=O)(=O)[O-])[C@@H](O)[C@H](O)[C@@H]1O.[Na+] (stereo partly drawn) [α-SRMG C18:0, 3-O-(6-deoxy-6-sulfo-α-D-mannopyranosyl)-1-O-stearoyl-glycerol sodium salt]	0.0784	0.1677	0.8758						
